Assays:
[1] = system: Human ovarian cancer cell line SKOV3; test: Phototoxicity in SKOV3 cells (660 nm laser or LED, AlamarBlue viability); type: cell-based; settings: SKOV3, 24 h uptake, 660 nm laser 50 mW/cm^2 for 5 mins (15 J/cm^2), viability 24 h later; read-out: Phototoxicity μM (IC90)
Source text: All data are shown as mean±SD (where appropriate).
Media was then replaced with fresh media containing AlamarBlue, and % viable cells remaining assessed as above. […] All measurements were made in quadruplicate.

E coli DH5α cells = test: Photosensitizer uptake into bacterial cells (absorbance spectra of lysates); type: cell-based; settings: 50 μM, incubated overnight
Description: E coli DH5α cells were inoculated into LB media and incubated overnight (shaking at 37° C.) in the presence of 50 μM compound 1 or chlorin e4 disodium. Untreated cells acted as the control. The following day cells were harvested by centrifugation (5000 g, 10 mins, room temperature) and lysed by addition of PBS+1% SDS (w/v)+1% PVP-17 (w/v). Insoluble material was pelleted by centrifugation at 21,000 g (10 mins, bench top centrifuge) and the supernatant transferred to a fresh tube. A 100 μl aliquot was added to clear 96-well microtitre plates and absorbance spectra measured between 600-700 nm (Cytation 3 multimode plate reader). The optical density (OD) was plotted against wavelength in each case to determine uptake of photosensitizer into cells.

[2] = system: Human ovarian cancer cell line SKOV3; test: Inherent cytotoxicity (dark toxicity) in SKOV3 cells (AlamarBlue viability); settings: SKOV3, 24 h incubation, no light activation
Description: Serial dilutions were prepared in cell culture media (Dulbecco's Modified Eagle Medium/Nutrient Mixture F-12 (DMEM/F-12)) supplemented with 10% v/v Fetal Bovine Serum, 100 U/mL penicillin, 100 μg/mL streptomycin and the same excipient solution at a constant 1:55 dilution.
Human ovarian cancer cell line SKOV3 (ATCC #HTB-77) was maintained in Dulbecco's Modified Eagle Medium/Nutrient Mixture F-12 (DMEM/F-12), supplemented with 10% v/v Fetal Bovine Serum, 100 U/mL penicillin and 100 μg/mL streptomycin. Monolayer cultures were grown in a humidified incubator at 37° C. with 5% CO2. Once cells had reached ˜80% confluence, spent media was replaced with media containing photosensitizer at the required concentration and cells were incubated for the desired period of time to allow photosensitizer uptake.
Spectral absorbance and viability measurements were normalized in the range 0-100%, with a minimum of 0 and a maximum value determined from the dataset. Dose response was determined using a sigmoidal four-point non-linear regression with variable slope, and IC10 or IC90 calculated for each compound. All data are shown as mean±SD (where appropriate).
On reaching ˜60% confluence, media was aspirated and replaced with fresh media containing the relevant phyllochlorin analogue from 0-100 μM in DMSO.
Untreated cells were used as a control. […] All measurements were made in quadruplicate.
The phototoxicity and inherent cytotoxicity (i.e. “dark toxicity”) of phyllochlorin analogues were assessed as previously using SKOV3 ovarian cancer cells. For comparative purposes, phyllochlorin analogues were compared against chlorin e4 disodium and Talaporfin sodium, a clinically approved photosensitizer used in the photodynamic treatment of lung cancers.

[3] = system: SKOV3 ovarian cancer cells; test: Photosensitizer uptake into SKOV3 cancer cells (absorbance of cell lysates at 405 nm); settings: SKOV3, 5 μM
Description: SKOV3 cells were seeded in 96-well black wall plates (Greiner #655090) at a cell density of 5000 cells in 100 μl culture medium per well. […] Cells were incubated for up to 18 hours. At time periods of 10 min, 20 min, 30 min, 60 min, 2 hrs, 4 hrs and 18 hrs, media was removed and the cells lysed in 100 μl of lysis buffer (PBS+1% SDS+1% PVP+Benzonase Nuclease 500 units/mL). Each sample was snap-frozen on dry ice until use.
Eight point standard curves using compound 1 or chlorin e4 disodium were constructed in the range 0-10 μM using serial dilutions in lysis buffer. Cell lysates (100 μl) were thawed, centrifuged at room temperature (21,000 g, 10 mins) and the supernatants transferred to fresh tubes. 100 μl of each supernatant was added neat to 96-well microplates and absorbance measured at 405 nm using a Cytation 3 multimode plate reader. All wells were measured against blank wells containing buffer alone, and a background value measured using untreated cells was subtracted from all samples. The concentration of each chlorin species was determined against the appropriate standard curve in each case.
Chlorin e4 disodium (which enters cells via a passive diffusion process) was included as a comparator, and untreated cells were used as a control. Cells were harvested at time periods from 10 mins to 18 hours post addition of photosensitizers, cells were lysed and the supernatants measured for uptake of photosensitizers against an appropriate standard curve.

## C=Cc1c(C)c2cc3nc(c(C)c4[nH]c(cc5nc(cc1[nH]2)C(C)=C5CC)c(C)c4C(=O)O)[C@@H](CCC(=O)O)[C@@H]3C [Chlorin e4 disodium, reference compound]
[1]
  IC90: 21.3 µM
E coli DH5α cells
  detection in bacterial lysates: detected marginally above background
[2]
  Dark toxicity μM (IC10): 40.23 µM
[3]
  detectability in cells: undetectable until after one hour of incubation
  time of reaching maximum accumulation: 18 h

From patent US20250177533A1, “PHOTODYNAMIC THERAPY AND DIAGNOSIS” (RMW CHO Group Limited, priority 2021, published 2025)
